Reference: PubChem BioAssay (NCI)
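Tested at 5 concentrations; 48 h exposure; 96-well plates; endpoints linearly interpolated, else capped at highest concentration. GI50 = concentration required for 50% inhibition of growth. TGI is the concentration that stops growth completely.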

Assays:
Assay in all cases: growth of human tumour cells (NCI), 48 h
SF-295 CNS = system: SF-295 CNS
SF-268 CNS = system: SF-268 CNS
ACHN renal = system: ACHN renal
T-47D breast = system: T-47D breast
SK-MEL-5 melanoma = system: SK-MEL-5 melanoma
UACC-257 melanoma = system: UACC-257 melanoma
MOLT-4 leukemia = system: MOLT-4 leukemia
A549 NSCLC = system: A549 NSCLC
HT29 colon = system: HT29 colon
HOP-92 NSCLC = system: HOP-92 NSCLC
SF-539 CNS = system: SF-539 CNS
PC-3 prostate = system: PC-3 prostate
SNB-19 CNS = system: SNB-19 CNS
UACC-62 melanoma = system: UACC-62 melanoma
NCI-H23 lung = system: NCI-H23 lung
NCI-H522 lung = system: NCI-H522 lung
UO-31 renal = system: UO-31 renal
K-562 leukemia = system: K-562 leukemia
U251 CNS = system: U251 CNS
MALME-3M melanoma = system: MALME-3M melanoma
CCRF-CEM leukemia = system: CCRF-CEM leukemia
SNB-75 CNS = system: SNB-75 CNS
OVCAR-4 ovarian = system: OVCAR-4 ovarian
SK-MEL-2 melanoma = system: SK-MEL-2 melanoma
M14 melanoma = system: M14 melanoma
TK-10 renal = system: TK-10 renal
OVCAR-8 ovarian = system: OVCAR-8 ovarian
RPMI-8226 leukemia = system: RPMI-8226 leukemia
RXF 393 renal = system: RXF 393 renal
LOX IMVI melanoma = system: LOX IMVI melanoma
SK-MEL-28 melanoma = system: SK-MEL-28 melanoma
COLO 205 colon = system: COLO 205 colon
SK-OV-3 ovarian = system: SK-OV-3 ovarian
NCI-H226 lung = system: NCI-H226 lung
A498 renal = system: A498 renal
OVCAR-5 ovarian = system: OVCAR-5 ovarian
KM12 colon = system: KM12 colon
MCF7 breast = system: MCF7 breast
SR leukemia = system: SR leukemia
HOP-62 NSCLC = system: HOP-62 NSCLC
HL-60(TB) leukemia = system: HL-60(TB) leukemia
BT-549 breast = system: BT-549 breast
MDA-MB-435 = system: MDA-MB-435
SW-620 colon = system: SW-620 colon
SN12C renal = system: SN12C renal
HCT-116 colon = system: HCT-116 colon
EKVX NSCLC = system: EKVX NSCLC
NCI-H460 lung = system: NCI-H460 lung
NCI/ADR-RES ovarian = system: NCI/ADR-RES ovarian
HCC-2998 colon = system: HCC-2998 colon
MDA-MB-231 breast = system: MDA-MB-231 breast
HS 578T breast = system: HS 578T breast
786-0 renal = system: 786-0 renal
HCT-15 colon = system: HCT-15 colon
IGROV1 ovarian = system: IGROV1 ovarian
OVCAR-3 ovarian = system: OVCAR-3 ovarian

In the case of `CC(C)C[C@H]1C(=O)O[C@H](C(C)C)C(=O)N(C)[C@@H](C(C)C)C(=O)O[C@H](C(C)C)C(=O)N(C)[C@@H](C(C)C)C(=O)O[C@H](C(C)C)C(=O)N1C`, the GI50 (SF-295 CNS) is reported as 2720 nM, the TGI (SF-295 CNS) is reported as > 10 µM and the GI50 (SF-268 CNS) is reported as 3.71 µM. The TGI (SF-268 CNS) was > 10 µM, the GI50 (ACHN renal) was 2600 nM and the TGI (ACHN renal) was 8.83 µM. The GI50 (T-47D breast) was 2650 nM, the TGI (T-47D breast) was 8.43 µM and the GI50 (SK-MEL-5 melanoma) was 1870 nM. For the same compound, the TGI (SK-MEL-5 melanoma) was 4.05 µM, the GI50 (UACC-257 melanoma) was 2620 nM and the TGI (UACC-257 melanoma) was 8.49 µM. The GI50 (MOLT-4 leukemia) was 3.27 µM, the TGI (MOLT-4 leukemia) was > 10 µM and the GI50 (A549 NSCLC) was 3.44 µM. The TGI (A549 NSCLC) was > 10 µM, the GI50 (HT29 colon) was 3.4 µM and the TGI (HT29 colon) was > 10 µM. For the same compound, the GI50 (HOP-92 NSCLC) was 1700 nM, the TGI (HOP-92 NSCLC) was 5.51 µM and the GI50 (SF-539 CNS) was 3.2 µM. For the same compound, the TGI (SF-539 CNS) was > 10 µM, the GI50 (PC-3 prostate) was 3.15 µM and the TGI (PC-3 prostate) was > 10 µM. For the same compound, the GI50 (SNB-19 CNS) was 3.4 µM, the TGI (SNB-19 CNS) was > 10 µM and the GI50 (UACC-62 melanoma) was 3.47 µM. The TGI (UACC-62 melanoma) was > 10 µM, the GI50 (NCI-H23 lung) was 3.19 µM and the TGI (NCI-H23 lung) was > 10 µM. The GI50 (NCI-H522 lung) was 2610 nM, the TGI (NCI-H522 lung) was > 10 µM and the GI50 (UO-31 renal) was 1810 nM. The TGI (UO-31 renal) was 7.69 µM, the GI50 (K-562 leukemia) was 3.7 µM and the TGI (K-562 leukemia) was > 10 µM. For the same compound, the GI50 (U251 CNS) was 3.51 µM, the TGI (U251 CNS) was > 10 µM and the GI50 (MALME-3M melanoma) was 2060 nM. The TGI (MALME-3M melanoma) was 8.67 µM, the GI50 (CCRF-CEM leukemia) was 3.5 µM and the TGI (CCRF-CEM leukemia) was > 10 µM. The GI50 (SNB-75 CNS) was 2250 nM, the TGI (SNB-75 CNS) was > 10 µM and the GI50 (OVCAR-4 ovarian) was 2370 nM. The TGI (OVCAR-4 ovarian) was > 10 µM, the GI50 (SK-MEL-2 melanoma) was 3.04 µM and the TGI (SK-MEL-2 melanoma) was > 10 µM. For the same compound, the GI50 (M14 melanoma) was 3.65 µM, the TGI (M14 melanoma) was > 10 µM and the GI50 (TK-10 renal) was 3.27 µM. The TGI (TK-10 renal) was > 10 µM, the GI50 (OVCAR-8 ovarian) was 3.17 µM and the TGI (OVCAR-8 ovarian) was > 10 µM. For the same compound, the GI50 (RPMI-8226 leukemia) was 1530 nM, the TGI (RPMI-8226 leukemia) was 5.56 µM and the GI50 (RXF 393 renal) was 3.33 µM. For the same compound, the TGI (RXF 393 renal) was > 10 µM, the GI50 (LOX IMVI melanoma) was 3.19 µM and the TGI (LOX IMVI melanoma) was > 10 µM. The GI50 (SK-MEL-28 melanoma) was 4.23 µM, the TGI (SK-MEL-28 melanoma) was > 10 µM and the GI50 (COLO 205 colon) was 1640 nM. It also gave a TGI (COLO 205 colon) of 3.29 µM, a GI50 (SK-OV-3 ovarian) of 2210 nM and a TGI (SK-OV-3 ovarian) of 6.05 µM. The GI50 (NCI-H226 lung) was 4.01 µM, the TGI (NCI-H226 lung) was > 10 µM and the GI50 (A498 renal) was 1720 nM. For the same compound, the TGI (A498 renal) was 6.4 µM, the GI50 (OVCAR-5 ovarian) was 2880 nM and the TGI (OVCAR-5 ovarian) was > 10 µM. The GI50 (KM12 colon) was 3.25 µM, the TGI (KM12 colon) was > 10 µM and the GI50 (MCF7 breast) was 2820 nM. For the same compound, the TGI (MCF7 breast) was > 10 µM, the GI50 (SR leukemia) was 3.65 µM and the TGI (SR leukemia) was > 10 µM. For the same compound, the GI50 (HOP-62 NSCLC) was 2820 nM, the TGI (HOP-62 NSCLC) was > 10 µM and the GI50 (HL-60(TB) leukemia) was 2320 nM. For the same compound, the TGI (HL-60(TB) leukemia) was 5.23 µM, the GI50 (BT-549 breast) was 3.43 µM and the TGI (BT-549 breast) was > 10 µM. The GI50 (MDA-MB-435) was 3.46 µM, the TGI (MDA-MB-435) was > 10 µM and the GI50 (SW-620 colon) was 3.38 µM. The TGI (SW-620 colon) was > 10 µM, the GI50 (SN12C renal) was 3.09 µM and the TGI (SN12C renal) was > 10 µM. The GI50 (HCT-116 colon) was 3.18 µM, the TGI (HCT-116 colon) was > 10 µM and the GI50 (EKVX NSCLC) was 3.1 µM. The TGI (EKVX NSCLC) was > 10 µM, the GI50 (NCI-H460 lung) was 3.14 µM and the TGI (NCI-H460 lung) was > 10 µM. For the same compound, the GI50 (NCI/ADR-RES ovarian) was 2900 nM, the TGI (NCI/ADR-RES ovarian) was > 10 µM and the GI50 (HCC-2998 colon) was 3.9 µM. The TGI (HCC-2998 colon) was > 10 µM, the GI50 (MDA-MB-231 breast) was 2650 nM and the TGI (MDA-MB-231 breast) was 8.22 µM. For the same compound, the GI50 (HS 578T breast) was 4.1 µM, the TGI (HS 578T breast) was > 10 µM and the GI50 (786-0 renal) was 3.71 µM. The TGI (786-0 renal) was > 10 µM, the GI50 (HCT-15 colon) was 3.05 µM and the TGI (HCT-15 colon) was > 10 µM. The GI50 (IGROV1 ovarian) was 4.46 µM, the TGI (IGROV1 ovarian) was > 10 µM and the GI50 (OVCAR-3 ovarian) was 2400 nM. For the same compound, the TGI (OVCAR-3 ovarian) was > 10 µM.
